Counter-ions that a name gives are not always drawn.

Assay [1] deals with B6SJL-Tg(SOD1*G93A)1Gur/J mice. Nature of the assay: Lifespan of G93A ALS mouse strain. The format is in vivo. An excerpt:
Amyotrophic lateral sclerosis (ALS) is a fatal neurodegenerative disease, caused by the death of motor neurons mainly in the spinal cord. The main form of familiar (genetic or inherited) ALS is caused by the mutation of superoxide dismutase 1 (SOD1) gene, which results in […] amyloid-like aggregations and progressive neuronal degenerations. […] The “golden standard” of preclinical ALS drug tests is the use of a specific transgenic mouse strain, which harbors high-copy number of human mutated SOD1 gene, having a mutation of G93A.
The effect of Ex. 23 was investigated on lifespan of G93A ALS mouse strain. A total of 33 transgenic female mice (B6SJL-Tg(SOD1*G93A)1Gur/J) were bred from 4 breeding pairs. The breeding pairs were purchased from the Jackson Laboratory (jax.org). The mice were individually housed in an IVC rack. Standard food pellets and water was available ad libidum. Body weight was monitored daily. The compound Ex. 23 was freshly dissolved in saline every day, and was administered daily intraperitoneally at the onset of symptoms in 10 mg/bwkg. Symptom onset was determined according to ALS-TDI neurological score. Mice treated with Ex. 23 lived longer (FIG. 10) than untreated mice (mean survival 143±3 days; n=8 and 132±3 days; n=25, respectively).

Assay [2] has as its system Hsp25 promoter. Nature of the assay: Hsp25 promoter-GFP reporter in SHSY5Y cells, flow cytometry. The assay is classed as cell-based, human. To be noted: FIG. 2. The procedure: The Hsp co-inducing effect of the compounds on stress response was tested on B16 mouse melanoma and SHSY5Y human neuroblastoma cell lines stably transfected with Hsp promoter probing plasmids. This kind of promoter probing, using the promoter region of a given gene conjugated with fluorescent protein is used as a best and fastest test system for finding drugs which modulate the activity of the gene followed by the given promoter (Wyshocka et al., Mol. Cel. Biochem. 215:153-156, 2000).
Reporter plasmids, containing the Hsp70 and/or Hsp25 promoter conjugated to either YFP or GFP (yellow or green fluorescent protein), were stably transfected into the cells and the expression of YFP or GFP was followed by flow cytometry. Cells were either kept at 37° C. or exposed to heat shock at 42° C. for 1 hour followed by a 16 hour recovery period at 37° C. in the presence or absence of different concentrations of the test compound. After recovery the expression of YFP or GFP which is in straight correlation with the promoter activity of Hsp70 or Hsp27 genes was followed by measuring the fluorescence intensity of the cells by flow cytometry. Fluorescence intensity is in straight correlation with the amount of fluorescent protein (GFP or YFP) produced under the control of hsp promoter. The mean fluorescence intensity of YFP or GFP produced is shown as “Hsp promoter activity”.
The fluorescence intensity of GFP and YFP […].
Selectivity of the Hsp25 co-inducing activity of compound of Ex. 11 is shown on FIG. 3. […] The fluorescence intensity of GFP produced as a result of Hsp25 promoter activity was measured by flow cytometry.
Cells were homogenously distributed on 6-well plates in 1×10^5 cells/well density. B16-pHsp25-GFP and B16-pHsp70-YFP melanoma cells were grown in RPMI-1640 medium supplemented with 10% Fetal bovine serum (FBS), penicillin (200 units/ml), streptomycin (200 μg/ml) and 2 mM L-Glutamine. […] The changes in cells' fluorescence were detected using BD FACSCalibur flow cytometer.
(In general: In flow cytometry, cells or beads pass a laser one at a time.)

Assay [3] has as its system APP mutant transgenic mice. Kind of assay: Morris water maze, wild and APP mutant transgenic mice. The assay is classed as in vivo, mouse. Conditions: daily i.p. for 6 months, FIG. 6. An excerpt:
The neuro- and memoryprotective effect of the compounds of invention was studied on wild and APP mutant transgenic mice. These mice express high levels of mutant beta-amyloid and, with increasing age, develop both substantial amyloid plaque load and memory deficits. Spatial memory disfunction [with the Morris water maze (MWM) behavioural task assay] and histological assays (cell density, astroglial response, tau-pathology, amyloid-histology and dendritic spine density) in the hippocampal (HC) region (key area for the memory-function) were performed.
The Morris water navigation task is a behavioral procedure widely used in behavioral neuroscience to study spatial learning and memory. The classic measure of learning is latency, which is the time it takes to find the platform after repeating the task daily.
16 adult female APP+ transgenic and 16 adult female wild type mice were the subjects of the experiment. The animals were housed in sterile mouse cages with a natural dark/light cycle, they had free access to food and water throughout the experiment. After arrival, the mice were daily gently handled for a week. […]
Spatial learning and memory were assessed in a circular pool (diameter: 130 cm, height: 60 cm), filled with water (23±1° C.) and made opaque with milk. […]
The data were recorded and evaluated automatically by using a video tracking system. […]

In assay [1] (10 mg/bwkg daily i.p. from onset of symptoms, n=8, FIG. 10), `COC(=O)C1=C(CCN(C)C)N(C)C(CCN(C)C)=C(C(=O)OC)C1c1ccc(C(F)(F)F)cc1` [Example 23, Dimethyl 4-(4-trifuoromethylphenyl)-2,6-bis-(2-dimethylaminoethyl)-1-methyl-1,4-dihydropyridine-3,5-dicarboxylate dihydrochloride] had a mean survival of 143 ± 3 days. The In vivo efficacy entry in assay [1] (model in which efficacy was shown) was “ALS”. Also, the “effect on the expression of Hsp25” value in assay [2] is “no effect on the expression of Hsp25”. Further, the “spatial memory, time to find the hidden platform in Morris water maze” value in assay [3] is “enhances the ability of both the wild type and the memory deficit mutant mice to find the hidden platform”.

The values are drawn from US10660789B2, “1,4-dihydropyridine derivatives with HSP modulating activity” (Richter Gedeon NYRT., priority 2011, dated 2020).
